The results in this text go back to US10703733B2, “MCL-1 inhibitors” (Gilead Sciences, Inc., priority 2018, dated 2020).

The structures appear in SMILES notation. Read-outs that look alike come from different tables or passages of the source.

What is called IC50 is the concentration that inhibits the measured activity by half. As usually defined, the EC50 is the concentration needed to bring the measured effect to its halfway point.

Experiment [1] has as its target MCL-1/Bim interaction (recombinant human MCL-1 protein, residues 171-327; biotinylated human Bim peptide, residues 51-76) (Homo sapiens (Human), UniProt Q07820). Nature of the experiment: MCL-1/Bim Binding AlphaLISA Assay. The conditions noted are these: 0.0625 nM 6xHis-Mcl-1 (171-327), 0.0625 nM biotinylated-Bim peptide. Summed up:
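Compounds first sat 1 h with MCL-1 (171-327, 0.0625 nM), followed by 2 h with biotin-Bim 51-76 (0.0625 nM), then sequential 1 h anti-His acceptor and streptavidin donor bead steps; buffer Hepes pH 7.5 with NaCl, Brij 35, DTT, BSA. AlphaScreen signal converted to % inhibition using DMSO (negative) and protein/peptide-free (positive) controls.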

Another experiment deals with SKBR3 cells. Nature of the experiment: SKBR3 Cell Viability Assay (CellTiter Glo). The experiment is classed as cell-based. The following applies: CellTiter Glo luminescence, read-out: MCL-1 CV SKBR3 EC50. How it is done: SKBR3 Cell Viability Assay Materials
SKBR3 Cells (ATCC HTB-30) were obtained from ATCC (Manassas, Va.) and cultured in McCoy 5A's medium (ATCC 30-2007)+10% fetal bovine serum (SH30071.03, HyClone, Pittsburgh, Pa.) plus 1× Penicillin-Streptomycin L-glutamine (Corning 30-009-C1, Corning, N.Y.)).
The cell viability assay was conducted in a 384-well tissue culture plate (Grenier 781086, Monroe, N.C.) in a total volume of 70 μL. Test compounds were prepared in 1,000×, serially diluted, and pre-spotted into 384-well tissue culture plate by Echo 555 Liquid Handler (Labcyte Inc., San Jose, Calif.). Seventy μl of 6,000 SKBR3 cells were dispensed into each well of the plate and incubated at 37° C. with 5% CO2 for 72 hours. At the end of incubation, 2× CellTiter Glo (CTG) reagents (1 part buffer with 2 parts substrate) (Promega, Madison, Wis.) were prepared, and the plate and the reagent were equilibrated to room temperature for 30 minutes. CTG reagent was added to each plate by Biomek FX at 20 μL/well with 5 times pipetting and mixing to induce cell lysis. Luminescence was read by Envision multimode reader (PerkinElmer). […] Percent inhibition was calculated as followed: % Inhibition=100%*(Well−Neg)/(Pos−Neg) Neg, negative control, DMSO Pos, positive control, 10 μM Puromycin
(ATP-based viability assays read luminescence as a measure of living cells.)

Sequence of MCL-1/Bim interaction (recombinant human MCL-1 protein, residues 171-327; biotinylated human Bim peptide, residues 51-76) (Q07820 171-327): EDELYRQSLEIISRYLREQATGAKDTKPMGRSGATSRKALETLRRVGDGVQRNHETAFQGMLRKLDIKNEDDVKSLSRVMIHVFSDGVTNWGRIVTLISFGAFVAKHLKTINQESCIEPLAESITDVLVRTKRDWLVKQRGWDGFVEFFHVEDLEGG

With `CO[C@H]1/C=C/CCC[S@@](=O)(NC(=O)CCn2cncn2)=NC(=O)c2ccc3c(c2)N(C[C@@H]2CC[C@H]21)C[C@@]1(CCCc2cc(Cl)ccc21)CO3` [Example 42], the IC50 in experiment [1] is 0.1 nM. For the same molecule, the EC50 in the experiment on SKBR3 cells (Homo sapiens, SK-BR-3, 72 h) was found to be 3340 nM.
On the same counts, the results for `CO[C@H]1/C=C/CCC[S@@](=O)(NC(=O)CCc2nccn2C)=NC(=O)c2ccc3c(c2)N(C[C@@H]2CC[C@H]21)C[C@@]1(CCCc2cc(Cl)ccc21)CO3` [Example 43] are 1.6 nM and 2410 nM.
Turning to `CO[C@H]1/C=C/CCC[S@@](=O)(NC(=O)CCc2ncccn2)=NC(=O)c2ccc3c(c2)N(C[C@@H]2CC[C@H]21)C[C@@]1(CCCc2cc(Cl)ccc21)CO3` [Example 44], the concentration for half-maximal inhibition (IC50) in experiment [1] is 0.1 nM. Moreover, the EC50 in the experiment with SKBR3 cells (Homo sapiens, SK-BR-3, 72 h) is 376 nM.
On the same counts, the results for `CCn1nccc1CCC(=O)N[S@@]1(=O)=NC(=O)c2ccc3c(c2)N(C[C@@H]2CC[C@H]2[C@@H](OC)/C=C/CCC1)C[C@@]1(CCCc2cc(Cl)ccc21)CO3` [Example 45] are 0.1 nM and 191 nM.
As to `CO[C@H]1/C=C/CCC[S@@](=O)(NC(=O)CCc2cnn(C)n2)=NC(=O)c2ccc3c(c2)N(C[C@@H]2CC[C@H]21)C[C@@]1(CCCc2cc(Cl)ccc21)CO3` [Example 46], in experiment [1], the IC50 turned out to be 0.1 nM. In the experiment with SKBR3 cells (Homo sapiens, SK-BR-3, 72 h), the EC50 was 512 nM.
With `CO[C@H]1/C=C/CCC[S@@](=O)(NC(=O)CCc2ccccn2)=NC(=O)c2ccc3c(c2)N(C[C@@H]2CC[C@H]21)C[C@@]1(CCCc2cc(Cl)ccc21)CO3` [Example 47], in experiment [1], the IC50 turned out to be 0.1 nM. For the same molecule, the EC50 with SKBR3 cells (Homo sapiens, SK-BR-3, 72 h) was determined as 758 nM.
For the molecule `CO[C@H]1/C=C/C[C@H](C)[C@@H](C)[S@@](=O)(NC(=O)CCc2ccnn2C)=NC(=O)c2ccc3c(c2)N(C[C@@H]2CC[C@H]21)C[C@@]1(CCCc2cc(Cl)ccc21)CO3` [Example 49], the IC50 in experiment [1] was 0.1 nM. For the same molecule, the EC50 with SKBR3 cells (72 hours) came to 207 nM.
Take `CO[C@H]1/C=C/CCC[S@@](=O)(NC(=O)CCn2ncc3ccccc32)=NC(=O)c2ccc3c(c2)N(C[C@@H]2CC[C@H]21)C[C@@]1(CCCc2cc(Cl)ccc21)CO3` [Example 52]: in experiment [1], the IC50 turned out to be 0.9 nM. Besides, the EC50 with SKBR3 cells (Homo sapiens, SK-BR-3, 72 h) was 1950 nM.
On the same counts, the results for `CO[C@H]1/C=C/CCC[S@@](=O)(NC(=O)CCc2cncnc2)=NC(=O)c2ccc3c(c2)N(C[C@@H]2CC[C@H]21)C[C@@]1(CCCc2cc(Cl)ccc21)CO3` [Example 53] are 0.2 nM and 388 nM.
For `CO[C@H]1/C=C/CCC[S@@](=O)(NC(=O)CCn2cc(Cl)cn2)=NC(=O)c2ccc3c(c2)N(C[C@@H]2CC[C@H]21)C[C@@]1(CCCc2cc(Cl)ccc21)CO3` [Example 55] the same measures were 0.2 nM and 685 nM.
For `CO[C@H]1/C=C/CCC[S@@](=O)(NC(=O)CCn2nccc2C)=NC(=O)c2ccc3c(c2)N(C[C@@H]2CC[C@H]21)C[C@@]1(CCCc2cc(Cl)ccc21)CO3` [Example 56] the same measures were 0.6 nM and 1180 nM.
On to `CO[C@H]1/C=C/CCC[S@@](=O)(NC(=O)CCc2cnoc2)=NC(=O)c2ccc3c(c2)N(C[C@@H]2CC[C@H]21)C[C@@]1(CCCc2cc(Cl)ccc21)CO3` [Example 57], for which, in experiment [1], the IC50 turned out to be 0.2 nM. Also, in the experiment with SKBR3 cells (Homo sapiens, SK-BR-3, 72 h), the EC50 turned out to be 596 nM.
On the same counts, the results for `CO[C@H]1/C=C/CCC[S@@](=O)(NC(=O)CCc2ccon2)=NC(=O)c2ccc3c(c2)N(C[C@@H]2CC[C@H]21)C[C@@]1(CCCc2cc(Cl)ccc21)CO3` [Example 58] are 0.2 nM and 664 nM.
On the same counts, the results for `CO[C@H]1/C=C/CCC[S@@](=O)(NC(=O)CCn2ccc(C)n2)=NC(=O)c2ccc3c(c2)N(C[C@@H]2CC[C@H]21)C[C@@]1(CCCc2cc(Cl)ccc21)CO3` [Example 59] are 0.1 nM and 874 nM.
For `CO[C@H]1/C=C/CCC[S@@](=O)(NC(=O)CCc2nnc(C)o2)=NC(=O)c2ccc3c(c2)N(C[C@@H]2CC[C@H]21)C[C@@]1(CCCc2cc(Cl)ccc21)CO3` [Example 60] the same measures were 0.2 nM and 1090 nM.
`CO[C@H]1/C=C/CCC[S@@](=O)(NC(=O)CCn2cc(C)cn2)=NC(=O)c2ccc3c(c2)N(C[C@@H]2CC[C@H]21)C[C@@]1(CCCc2cc(Cl)ccc21)CO3` [Example 61]: in experiment [1], the IC50 was found to be 0.1 nM. Further, the EC50 with SKBR3 cells (Homo sapiens, SK-BR-3, 72 h) is 775 nM.
Take `CCC(=O)N[S@]1(=O)=NC(=O)c2ccc3c(c2)N(C[C@@H]2CC[C@H]2[C@@H](OC)/C=C/CC[C@H]1CC)C[C@@]1(CCCc2cc(Cl)ccc21)CO3` [Example 64]: the IC50 in experiment [1] came out at 5.2 nM. In the experiment on SKBR3 cells (72 hours), the EC50 was found to be 5830 nM.
On the same counts, the results for `CCC(=O)N[S@]1(=O)=NC(=O)c2ccc3c(c2)N(C[C@@H]2CC[C@H]2[C@@H](OCCN2CCOCC2)/C=C/CCC1)C[C@@]1(CCCc2cc(Cl)ccc21)CO3` [Example 66] are 2.7 nM and 5830 nM.
As to `CCC(=O)N[S@@]1(=O)=NC(=O)c2ccc3c(c2)N(C[C@@H]2CC[C@H]2[C@@H](OCCN2CCN(C)CC2)/C=C/CCC1)C[C@@]1(CCCc2cc(Cl)ccc21)CO3` [Example 68], the IC50 in experiment [1] turned out to be 46.9 nM. For the same molecule, the EC50 with SKBR3 cells (Homo sapiens, SK-BR-3, 72 h) amounted to 6300 nM.
On to `CC[C@@H]1CC/C=C/[C@H](OC)[C@@H]2CC[C@H]2CN2C[C@@]3(CCCc4cc(Cl)ccc43)COc3ccc(cc32)C(=O)N=[S@@]1(=O)NC(=O)CCc1ccnn1C` [Example 70], for which the IC50 in experiment [1] came out at 0.2 nM. Besides, the EC50 with SKBR3 cells (72 hours) turned out to be 374 nM.
As for `CO[C@H]1/C=C/CCC[S@@](=O)(NC(=O)C[C@H](O)c2ccccc2)=NC(=O)c2ccc3c(c2)N(C[C@@H]2CC[C@H]21)C[C@@]1(CCCc2cc(Cl)ccc21)CO3` [Example 72], the IC50 in experiment [1] came to 0.1 nM. Also, the EC50 in the experiment with SKBR3 cells (Homo sapiens, SK-BR-3, 72 h) turned out to be 262 nM.
With `CO[C@H]1/C=C/CCC[S@@](=O)(NC(=O)N2CCS(=O)(=O)CC2)=NC(=O)c2ccc3c(c2)N(C[C@@H]2CC[C@H]21)C[C@@]1(CCCc2cc(Cl)ccc21)CO3` [Example 73], in experiment [1], the IC50 was found to be 0.3 nM. In addition, the EC50 with SKBR3 cells (Homo sapiens, SK-BR-3, 72 h) is 2450 nM.
On the same counts, the results for `CO[C@H]1/C=C/CCC[S@](=O)(NC(=O)N2CCS(=O)(=O)CC2)=NC(=O)c2ccc3c(c2)N(C[C@@H]2CC[C@H]21)C[C@@]1(CCCc2cc(Cl)ccc21)CO3` [Example 74] are 7.3 nM and 10000 nM.
Turning to `CO[C@H]1/C=C/CCC[S@@](=O)(NC(=O)NCc2ccnn2C)=NC(=O)c2ccc3c(c2)N(C[C@@H]2CC[C@H]21)C[C@@]1(CCCc2cc(Cl)ccc21)CO3` [Example 75], the IC50 in experiment [1] worked out at 0.3 nM. Also, in the experiment with SKBR3 cells (Homo sapiens, SK-BR-3, 72 h), the EC50 came to 692 nM.
On the same counts, the results for `CCN(C)C(=O)N[S@]1(=O)=NC(=O)c2ccc3c(c2)N(C[C@@H]2CC[C@H]2[C@@H](OC)/C=C/CCC1)C[C@@]1(CCCc2cc(Cl)ccc21)CO3` [Example 76] are 10.5 nM and 6330 nM.
For `CCN(C)C(=O)N[S@@]1(=O)=NC(=O)c2ccc3c(c2)N(C[C@@H]2CC[C@H]2[C@@H](OC)/C=C/CCC1)C[C@@]1(CCCc2cc(Cl)ccc21)CO3` [Example 77] the same measures were 5.3 nM and 6040 nM.
Regarding `CO[C@H]1/C=C/CCC[S@@](=O)(NC(=O)OCc2ccnn2C)=NC(=O)c2ccc3c(c2)N(C[C@@H]2CC[C@H]21)C[C@@]1(CCCc2cc(Cl)ccc21)CO3` [Example 78], the IC50 in experiment [1] was determined as 0.8 nM. Moreover, the 50% effective concentration (EC50) in the experiment with SKBR3 cells (Homo sapiens, SK-BR-3, 72 h) was 4070 nM.
For the molecule `CO[C@H]1/C=C/CCC[S@@](=O)(NC(=O)NCc2ccncc2)=NC(=O)c2ccc3c(c2)N(C[C@@H]2CC[C@H]21)C[C@@]1(CCCc2cc(Cl)ccc21)CO3` [Example 79], the IC50 in experiment [1] came to 0.4 nM. In the experiment with SKBR3 cells (Homo sapiens, SK-BR-3, 72 h), the concentration giving a half-maximal response (EC50) was found to be 3030 nM.
